Test results published in article PMC11672637, “7-O-Carboxylic Acid-Substituted 3-O-Alkyl Difluoroquercetin; An Aztreonam-Potentiating Agent Against Carbapenemase-Producing Pseudomonas aeruginosa Through Simultaneous Inhibition of Metallo-β-Lactamase and Efflux Pump” (Antibiotics, 2024).

Legend:
Experiment in all cases: Time–kill assay
Type in all cases: cell-based, P. aeruginosa
Conditions in all cases: for Log CFU/mL, ATM + 5: 24 h
PA-002, blaIMP = test system: PA-002, blaIMP
Experimental: (§1) Aliquots (50 μL) were taken from the incubation mixture at regular time intervals (t = 0, 3, 6, and 24 h), serially diluted in 0.85% NaCl solution, and plated on BAP. Bacterial colonies were counted, and the data are presented as the means of at least three independent experiments.

PA-003, blaVIM = test system: PA-003, blaVIM
Experimental: as §1

PA-014, blaGES = test system: PA-014, blaGES
Experimental: as §1

PA-017, blaNDM = test system: PA-017, blaNDM
Experimental: as §1

CC(C)(C)CCOc1c(-c2ccc(F)c(F)c2)oc2cc(OCC(=O)O)cc(O)c2c1=O [Compound 5, 2-((2-(3,4-Difluorophenyl)-3-(3,3-dimethylbutoxy)-5-hydroxy-4-oxo-4H-chromen-7-yl)oxy)acetic Acid]
Log CFU/mL, ATM + 5 (PA-002, blaIMP; ATM 1/2 MIC + 5 at 8 mg/L): 6.66 Log CFU/mL | Diff. (ATM + 5, 24 h vs initial inoculum) (PA-002, blaIMP; ATM 1/4 MIC + 5 at 8 mg/L): 2.26 Log CFU/mL | Diff. (ATM + 5 vs ATM only) (PA-002, blaIMP; ATM 1/4 MIC + 5 at 8 mg/L): −1.77 Log CFU/mL | Log CFU/mL, ATM + 5 (PA-002, blaIMP; ATM 1/4 MIC + 5 at 8 mg/L): 7.71 Log CFU/mL | Diff. (ATM + 5, 24 h vs initial inoculum) (PA-002, blaIMP; ATM 1 MIC + 5 at 8 mg/L): −2.42 Log CFU/mL | Diff. (ATM + 5 vs ATM only) (PA-002, blaIMP; ATM 1 MIC + 5 at 8 mg/L): −5.12 Log CFU/mL | Synergistic activity, interpretation (PA-002, blaIMP; ATM 1 MIC + 5 at 8 mg/L): Synergy (a ≥ 2 log10 decrease in CFU/mL for the combination of ATM and 5 compared to ATM alone after 24 h of incubation) | Log CFU/mL, ATM + 5 (PA-002, blaIMP; ATM 1 MIC + 5 at 8 mg/L): 3.03 Log CFU/mL | Diff. (ATM + 5, 24 h vs initial inoculum) (PA-002, blaIMP; ATM 2 MIC + 5 at 8 mg/L): −5.45 Log CFU/mL | Diff. (ATM + 5 vs ATM only) (PA-002, blaIMP; ATM 2 MIC + 5 at 8 mg/L): −5.5 Log CFU/mL | Synergistic activity, interpretation (PA-002, blaIMP; ATM 2 MIC + 5 at 8 mg/L): Synergy (a ≥ 2 log10 decrease in CFU/mL for the combination of ATM and 5 compared to ATM alone after 24 h of incubation) | Log CFU/mL, ATM + 5 (PA-002, blaIMP; ATM 2 MIC + 5 at 8 mg/L): 0.00 Log CFU/mL | Diff. (ATM + 5, 24 h vs initial inoculum) (PA-003, blaVIM; ATM 1/2 MIC + 5 at 8 mg/L): 4.11 Log CFU/mL | Diff. (ATM + 5 vs ATM only) (PA-003, blaVIM; ATM 1/2 MIC + 5 at 8 mg/L): −0.04 Log CFU/mL | Log CFU/mL, ATM + 5 (PA-003, blaVIM; ATM 1/2 MIC + 5 at 8 mg/L): 9.84 Log CFU/mL | Diff. (ATM + 5, 24 h vs initial inoculum) (PA-003, blaVIM; ATM 1/4 MIC + 5 at 8 mg/L): 4.35 Log CFU/mL | Diff. (ATM + 5 vs ATM only) (PA-003, blaVIM; ATM 1/4 MIC + 5 at 8 mg/L): −0.1 Log CFU/mL | Log CFU/mL, ATM + 5 (PA-003, blaVIM; ATM 1/4 MIC + 5 at 8 mg/L): 10.08 Log CFU/mL | Diff. (ATM + 5, 24 h vs initial inoculum) (PA-003, blaVIM; ATM 1 MIC + 5 at 8 mg/L): −5.5 Log CFU/mL | Diff. (ATM + 5 vs ATM only) (PA-003, blaVIM; ATM 1 MIC + 5 at 8 mg/L): −8.9 Log CFU/mL | Synergistic activity, interpretation (PA-003, blaVIM; ATM 1 MIC + 5 at 8 mg/L): Synergy (a ≥ 2 log10 decrease in CFU/mL for the combination of ATM and 5 compared to ATM alone after 24 h of incubation) | Log CFU/mL, ATM + 5 (PA-003, blaVIM; ATM 1 MIC + 5 at 8 mg/L): 0.23 Log CFU/mL | Diff. (ATM + 5, 24 h vs initial inoculum) (PA-003, blaVIM; ATM 2 MIC + 5 at 8 mg/L): −5.73 Log CFU/mL | Diff. (ATM + 5 vs ATM only) (PA-003, blaVIM; ATM 2 MIC + 5 at 8 mg/L): −6.4 Log CFU/mL | Synergistic activity, interpretation (PA-003, blaVIM; ATM 2 MIC + 5 at 8 mg/L): Synergy (a ≥ 2 log10 decrease in CFU/mL for the combination of ATM and 5 compared to ATM alone after 24 h of incubation) | Log CFU/mL, ATM + 5 (PA-003, blaVIM; ATM 2 MIC + 5 at 8 mg/L): 0.00 Log CFU/mL | Diff. (ATM + 5, 24 h vs initial inoculum) (PA-014, blaGES; ATM 1/2 MIC + 5 at 8 mg/L): 1.65 Log CFU/mL | Diff. (ATM + 5 vs ATM only) (PA-014, blaGES; ATM 1/2 MIC + 5 at 8 mg/L): −2.23 Log CFU/mL | Synergistic activity, interpretation (PA-014, blaGES; ATM 1/2 MIC + 5 at 8 mg/L): Synergy (a ≥ 2 log10 decrease in CFU/mL for the combination of ATM and 5 compared to ATM alone after 24 h of incubation) | Log CFU/mL, ATM + 5 (PA-014, blaGES; ATM 1/2 MIC + 5 at 8 mg/L): 6.60 Log CFU/mL | Diff. (ATM + 5, 24 h vs initial inoculum) (PA-014, blaGES; ATM 1/4 MIC + 5 at 8 mg/L): 3.88 Log CFU/mL | Diff. (ATM + 5 vs ATM only) (PA-014, blaGES; ATM 1/4 MIC + 5 at 8 mg/L): −0.5 Log CFU/mL | Log CFU/mL, ATM + 5 (PA-014, blaGES; ATM 1/4 MIC + 5 at 8 mg/L): 8.83 Log CFU/mL | Diff. (ATM + 5, 24 h vs initial inoculum) (PA-014, blaGES; ATM 1 MIC + 5 at 8 mg/L): −2.32 Log CFU/mL | Diff. (ATM + 5 vs ATM only) (PA-014, blaGES; ATM 1 MIC + 5 at 8 mg/L): −5.05 Log CFU/mL | Synergistic activity, interpretation (PA-014, blaGES; ATM 1 MIC + 5 at 8 mg/L): Synergy (a ≥ 2 log10 decrease in CFU/mL for the combination of ATM and 5 compared to ATM alone after 24 h of incubation) | Log CFU/mL, ATM + 5 (PA-014, blaGES; ATM 1 MIC + 5 at 8 mg/L): 2.63 Log CFU/mL | Diff. (ATM + 5, 24 h vs initial inoculum) (PA-014, blaGES; ATM 2 MIC + 5 at 8 mg/L): −4.8 Log CFU/mL | Diff. (ATM + 5 vs ATM only) (PA-014, blaGES; ATM 2 MIC + 5 at 8 mg/L): −2.3 Log CFU/mL | Synergistic activity, interpretation (PA-014, blaGES; ATM 2 MIC + 5 at 8 mg/L): Synergy (a ≥ 2 log10 decrease in CFU/mL for the combination of ATM and 5 compared to ATM alone after 24 h of incubation) | Log CFU/mL, ATM + 5 (PA-014, blaGES; ATM 2 MIC + 5 at 8 mg/L): 0.15 Log CFU/mL | Diff. (ATM + 5, 24 h vs initial inoculum) (PA-017, blaNDM; ATM 1/2 MIC + 5 at 8 mg/L): 1.52 Log CFU/mL | Diff. (ATM + 5 vs ATM only) (PA-017, blaNDM; ATM 1/2 MIC + 5 at 8 mg/L): −3.45 Log CFU/mL | Synergistic activity, interpretation (PA-017, blaNDM; ATM 1/2 MIC + 5 at 8 mg/L): Synergy (a ≥ 2 log10 decrease in CFU/mL for the combination of ATM and 5 compared to ATM alone after 24 h of incubation) | Log CFU/mL, ATM + 5 (PA-017, blaNDM; ATM 1/2 MIC + 5 at 8 mg/L): 6.52 Log CFU/mL | Diff. (ATM + 5, 24 h vs initial inoculum) (PA-017, blaNDM; ATM 1/4 MIC + 5 at 8 mg/L): 4.97 Log CFU/mL | Diff. (ATM + 5 vs ATM only) (PA-017, blaNDM; ATM 1/4 MIC + 5 at 8 mg/L): −0.77 Log CFU/mL | Log CFU/mL, ATM + 5 (PA-017, blaNDM; ATM 1/4 MIC + 5 at 8 mg/L): 9.97 Log CFU/mL | Diff. (ATM + 5, 24 h vs initial inoculum) (PA-017, blaNDM; ATM 1 MIC + 5 at 8 mg/L): −4.75 Log CFU/mL | Diff. (ATM + 5 vs ATM only) (PA-017, blaNDM; ATM 1 MIC + 5 at 8 mg/L): −6.27 Log CFU/mL | Synergistic activity, interpretation (PA-017, blaNDM; ATM 1 MIC + 5 at 8 mg/L): Synergy (a ≥ 2 log10 decrease in CFU/mL for the combination of ATM and 5 compared to ATM alone after 24 h of incubation) | Log CFU/mL, ATM + 5 (PA-017, blaNDM; ATM 1 MIC + 5 at 8 mg/L): 0.25 Log CFU/mL | Diff. (ATM + 5, 24 h vs initial inoculum) (PA-017, blaNDM; ATM 2 MIC + 5 at 8 mg/L): −5.00 Log CFU/mL | Diff. (ATM + 5 vs ATM only) (PA-017, blaNDM; ATM 2 MIC + 5 at 8 mg/L): −0.12 Log CFU/mL | Log CFU/mL, ATM + 5 (PA-017, blaNDM; ATM 2 MIC + 5 at 8 mg/L): 0.00 Log CFU/mL
